Reference: publication doi:10.1101/2023.11.24.568596v1 (biorxiv, 2023)

How the values were obtained:
Settings in all cases: binder
CaMK2b = CaMK2b (Homo sapiens, UniProt Q13554)
DYRK2 = target: T1, DYRK2 (Homo sapiens, UniProt Q92630)
T1 sequence (Q92630 1-601): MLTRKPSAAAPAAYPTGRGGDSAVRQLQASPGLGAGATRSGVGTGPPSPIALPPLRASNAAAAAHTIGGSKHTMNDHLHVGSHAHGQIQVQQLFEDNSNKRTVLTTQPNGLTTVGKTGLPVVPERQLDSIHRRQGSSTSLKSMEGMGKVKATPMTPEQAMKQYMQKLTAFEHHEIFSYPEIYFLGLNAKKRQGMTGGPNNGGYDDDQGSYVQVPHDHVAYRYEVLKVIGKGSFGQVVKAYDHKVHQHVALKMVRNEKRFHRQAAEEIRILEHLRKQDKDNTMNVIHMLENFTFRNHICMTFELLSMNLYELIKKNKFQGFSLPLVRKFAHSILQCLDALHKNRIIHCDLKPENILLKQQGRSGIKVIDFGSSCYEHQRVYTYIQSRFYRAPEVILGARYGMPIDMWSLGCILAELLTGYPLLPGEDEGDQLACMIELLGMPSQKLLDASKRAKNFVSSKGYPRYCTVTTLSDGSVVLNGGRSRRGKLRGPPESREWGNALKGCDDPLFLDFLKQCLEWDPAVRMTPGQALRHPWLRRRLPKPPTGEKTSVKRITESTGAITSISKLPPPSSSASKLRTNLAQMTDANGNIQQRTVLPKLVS

EphA5 = EphA5 (Homo sapiens, UniProt P54756)
EphA7 = EphA7 (Homo sapiens, UniProt Q15375)
MAPKAPK2 = MAPKAPK2 (Homo sapiens, UniProt P49137)
MELK = MELK (Homo sapiens, UniProt Q14680)
MER = target: T2, MER (Homo sapiens, UniProt Q12866)
T2 sequence (Q12866 1-999): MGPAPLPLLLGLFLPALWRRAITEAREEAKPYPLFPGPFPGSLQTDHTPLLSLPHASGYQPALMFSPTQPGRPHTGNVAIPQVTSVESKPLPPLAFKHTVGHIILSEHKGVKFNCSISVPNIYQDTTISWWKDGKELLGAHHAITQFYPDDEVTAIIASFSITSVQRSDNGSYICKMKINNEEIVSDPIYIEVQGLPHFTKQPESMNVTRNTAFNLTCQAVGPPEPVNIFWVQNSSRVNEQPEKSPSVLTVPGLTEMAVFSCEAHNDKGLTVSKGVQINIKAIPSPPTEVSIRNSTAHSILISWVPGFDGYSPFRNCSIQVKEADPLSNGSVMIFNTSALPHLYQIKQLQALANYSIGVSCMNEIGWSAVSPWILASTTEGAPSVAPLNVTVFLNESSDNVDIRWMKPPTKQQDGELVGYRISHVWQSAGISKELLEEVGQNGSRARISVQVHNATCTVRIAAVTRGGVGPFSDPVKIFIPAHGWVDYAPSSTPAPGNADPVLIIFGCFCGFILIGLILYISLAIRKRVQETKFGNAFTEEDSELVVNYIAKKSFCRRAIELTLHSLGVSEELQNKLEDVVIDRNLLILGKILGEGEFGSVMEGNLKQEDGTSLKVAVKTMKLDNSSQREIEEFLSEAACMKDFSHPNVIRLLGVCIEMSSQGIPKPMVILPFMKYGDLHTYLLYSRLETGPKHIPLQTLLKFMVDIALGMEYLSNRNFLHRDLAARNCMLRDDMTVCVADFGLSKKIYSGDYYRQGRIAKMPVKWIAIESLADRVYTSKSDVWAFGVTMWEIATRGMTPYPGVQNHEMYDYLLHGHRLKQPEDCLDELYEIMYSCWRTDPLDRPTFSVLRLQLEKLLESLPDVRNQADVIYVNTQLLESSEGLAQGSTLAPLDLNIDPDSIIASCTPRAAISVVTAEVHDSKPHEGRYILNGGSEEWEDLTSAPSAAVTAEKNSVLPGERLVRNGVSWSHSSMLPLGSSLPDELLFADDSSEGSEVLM

NDR2 = NDR2 (Homo sapiens, UniProt Q9Y2H1)
OSR1 = OSR1 (Homo sapiens, UniProt O95747)
PAK1 = PAK1 (Homo sapiens, UniProt Q13153)
Chain of PAK1 (Q13153 whole entry): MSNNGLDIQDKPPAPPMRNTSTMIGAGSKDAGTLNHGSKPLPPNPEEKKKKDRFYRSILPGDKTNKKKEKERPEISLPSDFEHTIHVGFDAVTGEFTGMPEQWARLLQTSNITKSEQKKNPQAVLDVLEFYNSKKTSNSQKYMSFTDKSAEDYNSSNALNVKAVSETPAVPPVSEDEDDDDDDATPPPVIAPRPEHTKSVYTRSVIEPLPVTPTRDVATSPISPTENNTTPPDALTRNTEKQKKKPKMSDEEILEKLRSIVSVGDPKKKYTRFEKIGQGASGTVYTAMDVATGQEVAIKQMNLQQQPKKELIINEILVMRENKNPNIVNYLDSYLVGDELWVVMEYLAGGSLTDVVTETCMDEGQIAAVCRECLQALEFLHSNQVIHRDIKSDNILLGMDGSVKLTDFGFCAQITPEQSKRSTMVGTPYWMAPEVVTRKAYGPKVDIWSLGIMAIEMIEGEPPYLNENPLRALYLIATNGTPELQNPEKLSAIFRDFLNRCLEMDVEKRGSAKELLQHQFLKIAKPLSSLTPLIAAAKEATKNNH

Chain of MELK (Q14680 whole entry): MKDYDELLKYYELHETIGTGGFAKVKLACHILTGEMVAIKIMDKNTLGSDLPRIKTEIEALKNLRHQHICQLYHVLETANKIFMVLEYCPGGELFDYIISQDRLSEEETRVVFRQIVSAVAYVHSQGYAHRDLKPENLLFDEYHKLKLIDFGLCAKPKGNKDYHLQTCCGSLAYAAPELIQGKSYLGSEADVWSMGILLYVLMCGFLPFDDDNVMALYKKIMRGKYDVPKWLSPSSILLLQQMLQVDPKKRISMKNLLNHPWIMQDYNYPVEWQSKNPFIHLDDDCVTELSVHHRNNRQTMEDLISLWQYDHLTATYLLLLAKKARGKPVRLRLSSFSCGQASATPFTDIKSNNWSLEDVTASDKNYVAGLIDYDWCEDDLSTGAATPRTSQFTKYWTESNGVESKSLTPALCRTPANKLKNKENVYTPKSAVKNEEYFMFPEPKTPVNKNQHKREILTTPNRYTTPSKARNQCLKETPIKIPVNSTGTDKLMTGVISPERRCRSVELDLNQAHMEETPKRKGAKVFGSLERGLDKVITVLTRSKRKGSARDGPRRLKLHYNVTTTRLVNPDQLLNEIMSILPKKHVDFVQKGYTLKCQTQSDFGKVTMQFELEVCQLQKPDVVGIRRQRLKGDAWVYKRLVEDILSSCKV
Chain of EphA5 (P54756 whole entry): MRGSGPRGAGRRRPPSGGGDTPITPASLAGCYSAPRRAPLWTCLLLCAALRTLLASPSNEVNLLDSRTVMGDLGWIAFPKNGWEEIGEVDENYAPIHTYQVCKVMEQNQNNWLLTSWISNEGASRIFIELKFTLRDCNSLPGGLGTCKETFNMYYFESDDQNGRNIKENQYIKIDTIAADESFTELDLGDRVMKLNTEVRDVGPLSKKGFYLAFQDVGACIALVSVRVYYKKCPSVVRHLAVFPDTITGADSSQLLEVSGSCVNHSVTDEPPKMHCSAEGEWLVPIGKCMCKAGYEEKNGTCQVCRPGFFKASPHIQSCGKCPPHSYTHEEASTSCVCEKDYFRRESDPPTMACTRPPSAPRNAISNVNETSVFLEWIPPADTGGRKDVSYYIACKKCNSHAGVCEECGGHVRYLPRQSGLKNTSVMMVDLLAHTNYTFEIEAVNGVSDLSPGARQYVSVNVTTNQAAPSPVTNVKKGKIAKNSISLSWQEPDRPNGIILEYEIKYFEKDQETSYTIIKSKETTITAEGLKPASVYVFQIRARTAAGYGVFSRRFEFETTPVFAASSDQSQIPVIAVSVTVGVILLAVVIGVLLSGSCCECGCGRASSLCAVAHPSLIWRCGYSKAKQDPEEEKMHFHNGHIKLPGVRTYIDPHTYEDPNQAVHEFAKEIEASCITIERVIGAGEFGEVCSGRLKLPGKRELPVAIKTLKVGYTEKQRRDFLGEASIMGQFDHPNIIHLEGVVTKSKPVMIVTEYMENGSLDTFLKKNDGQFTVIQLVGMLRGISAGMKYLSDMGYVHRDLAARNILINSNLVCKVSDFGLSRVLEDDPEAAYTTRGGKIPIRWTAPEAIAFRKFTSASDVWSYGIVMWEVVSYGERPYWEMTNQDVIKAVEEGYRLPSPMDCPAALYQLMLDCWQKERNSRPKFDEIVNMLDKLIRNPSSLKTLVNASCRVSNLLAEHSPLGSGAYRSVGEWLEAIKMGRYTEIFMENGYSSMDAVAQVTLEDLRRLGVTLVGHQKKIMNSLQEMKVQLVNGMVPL
Chain of MAPKAPK2 (P49137 whole entry): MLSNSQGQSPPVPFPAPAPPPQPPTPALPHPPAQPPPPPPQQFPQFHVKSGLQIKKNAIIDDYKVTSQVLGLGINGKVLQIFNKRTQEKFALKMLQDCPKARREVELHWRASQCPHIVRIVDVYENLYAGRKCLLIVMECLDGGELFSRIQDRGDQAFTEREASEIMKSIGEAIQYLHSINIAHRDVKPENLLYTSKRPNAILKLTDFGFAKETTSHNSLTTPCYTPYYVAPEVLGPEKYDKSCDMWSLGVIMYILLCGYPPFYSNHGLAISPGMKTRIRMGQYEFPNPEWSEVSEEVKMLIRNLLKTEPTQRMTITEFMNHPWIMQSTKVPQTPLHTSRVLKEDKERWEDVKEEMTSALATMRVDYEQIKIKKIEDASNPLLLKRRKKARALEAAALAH
Chain of CaMK2b (Q13554 whole entry): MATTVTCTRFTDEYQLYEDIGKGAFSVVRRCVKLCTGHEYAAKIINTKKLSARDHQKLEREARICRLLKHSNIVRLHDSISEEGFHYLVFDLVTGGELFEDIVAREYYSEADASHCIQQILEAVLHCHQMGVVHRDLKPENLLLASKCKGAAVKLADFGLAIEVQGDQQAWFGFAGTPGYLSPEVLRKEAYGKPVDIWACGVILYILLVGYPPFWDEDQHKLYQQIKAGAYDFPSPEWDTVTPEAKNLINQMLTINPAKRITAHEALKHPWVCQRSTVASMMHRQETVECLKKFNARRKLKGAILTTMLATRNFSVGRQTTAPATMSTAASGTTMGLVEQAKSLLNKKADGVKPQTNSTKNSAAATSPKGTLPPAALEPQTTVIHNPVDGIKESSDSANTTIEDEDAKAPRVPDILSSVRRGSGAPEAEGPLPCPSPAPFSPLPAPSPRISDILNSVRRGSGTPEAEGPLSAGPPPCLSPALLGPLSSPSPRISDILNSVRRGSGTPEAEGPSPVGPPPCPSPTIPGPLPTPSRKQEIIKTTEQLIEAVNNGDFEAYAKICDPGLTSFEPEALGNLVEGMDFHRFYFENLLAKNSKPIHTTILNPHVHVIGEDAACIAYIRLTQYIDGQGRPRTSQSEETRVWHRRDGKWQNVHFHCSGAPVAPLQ
Chain of EphA7 (Q15375 whole entry): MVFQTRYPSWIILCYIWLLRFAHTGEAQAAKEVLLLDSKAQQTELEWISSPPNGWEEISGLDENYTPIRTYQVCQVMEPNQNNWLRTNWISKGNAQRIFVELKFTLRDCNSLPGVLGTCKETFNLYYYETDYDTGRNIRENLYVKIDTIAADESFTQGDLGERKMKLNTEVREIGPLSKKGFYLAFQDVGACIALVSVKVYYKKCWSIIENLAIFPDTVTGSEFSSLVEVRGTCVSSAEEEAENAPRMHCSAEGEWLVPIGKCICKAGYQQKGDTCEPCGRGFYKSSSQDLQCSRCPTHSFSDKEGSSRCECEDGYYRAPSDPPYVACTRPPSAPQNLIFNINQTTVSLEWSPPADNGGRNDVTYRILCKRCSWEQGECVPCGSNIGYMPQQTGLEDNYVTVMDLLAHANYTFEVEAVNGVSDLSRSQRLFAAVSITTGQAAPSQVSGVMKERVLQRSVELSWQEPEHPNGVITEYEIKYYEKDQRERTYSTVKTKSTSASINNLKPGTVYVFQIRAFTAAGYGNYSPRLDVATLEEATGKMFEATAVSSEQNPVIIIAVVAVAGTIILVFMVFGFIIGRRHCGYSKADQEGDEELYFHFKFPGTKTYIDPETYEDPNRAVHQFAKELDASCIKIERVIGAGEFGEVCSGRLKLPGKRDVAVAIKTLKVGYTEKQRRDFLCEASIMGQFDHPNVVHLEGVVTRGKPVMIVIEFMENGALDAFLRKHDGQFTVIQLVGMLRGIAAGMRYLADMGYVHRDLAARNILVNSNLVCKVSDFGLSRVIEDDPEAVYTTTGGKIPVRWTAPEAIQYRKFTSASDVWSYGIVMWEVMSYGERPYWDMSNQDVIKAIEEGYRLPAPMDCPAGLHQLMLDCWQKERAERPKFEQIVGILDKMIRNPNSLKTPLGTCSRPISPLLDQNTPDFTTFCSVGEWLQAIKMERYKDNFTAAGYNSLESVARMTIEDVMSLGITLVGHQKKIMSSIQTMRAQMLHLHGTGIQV
Chain of NDR2 (Q9Y2H1 whole entry): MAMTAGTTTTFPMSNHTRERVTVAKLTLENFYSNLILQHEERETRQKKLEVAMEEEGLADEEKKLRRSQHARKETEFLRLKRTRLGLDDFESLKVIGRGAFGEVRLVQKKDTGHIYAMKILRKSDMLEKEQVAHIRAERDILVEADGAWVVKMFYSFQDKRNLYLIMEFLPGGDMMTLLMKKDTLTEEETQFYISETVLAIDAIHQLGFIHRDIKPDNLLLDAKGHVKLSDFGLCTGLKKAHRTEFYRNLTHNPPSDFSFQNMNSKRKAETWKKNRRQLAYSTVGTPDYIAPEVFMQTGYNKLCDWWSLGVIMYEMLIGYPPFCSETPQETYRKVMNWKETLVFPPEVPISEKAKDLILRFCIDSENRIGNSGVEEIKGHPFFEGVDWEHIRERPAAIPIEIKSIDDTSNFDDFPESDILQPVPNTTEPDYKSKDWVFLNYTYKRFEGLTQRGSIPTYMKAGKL

CNc1ncc2cc(-c3ccc(-c4cccc(C)n4)cc3Cl)c(=O)n(CCCCN)c2n1 [compound 20, MRLW5]
ΔTm MRLW5 (20) (CaMK2b): -1.3 °C | ΔTm MRLW5 (20) (DYRK2): -0.1 °C | ΔTm MRLW5 (20) (EphA5): 3.3 °C | ΔTm MRLW5 (20) (EphA7): 7.7 °C | ΔTm MRLW5 (20) (MAPKAPK2): 0.0 °C | ΔTm MRLW5 (20) (MELK): 8.0 °C | ΔTm MRLW5 (20) (MER): 2.5 °C | ΔTm MRLW5 (20) (NDR2): 4.6 °C | ΔTm MRLW5 (20) (OSR1): 1.6 °C | ΔTm MRLW5 (20) (PAK1): 7.5 °C

CNc1ncc2cc(-c3ccc(-c4cccc(C)n4)cc3Cl)c(=O)n(CCC3CCNCC3)c2n1 [compound 22, 6-(2-Chloro-4-(6-methylpyridin-2-yl)phenyl)-2-(methylamino)-8-(2-(piperidin-4-yl)ethyl)pyrido[2,3-d]pyrimidin-7(8H)-one]
ΔTm 22 (CaMK2b): -0.9 °C | ΔTm 22 (DYRK2): -0.4 °C | ΔTm 22 (EphA5): 4.1 °C | ΔTm 22 (EphA7): 7.7 °C | ΔTm 22 (MAPKAPK2): -0.1 °C | ΔTm 22 (MELK): 8.5 °C | ΔTm 22 (MER): 2.6 °C | ΔTm 22 (NDR2): 5.1 °C | ΔTm 22 (OSR1): 0.7 °C | ΔTm 22 (PAK1): 8.6 °C

CNc1ncc2cc(-c3ccc(-c4cccc(C)n4)cc3Cl)c(=O)n(C[C@H]3CC[C@H](N)CC3)c2n1 [compound 23, 23]
ΔTm 23 (CaMK2b): 0.2 °C | ΔTm 23 (DYRK2): -0.2 °C | ΔTm 23 (EphA5): 4.0 °C | ΔTm 23 (EphA7): 10.4 °C | ΔTm 23 (MAPKAPK2): -0.9 °C | ΔTm 23 (MELK): 10.4 °C | ΔTm 23 (MER): 3.1 °C | ΔTm 23 (NDR2): 3.5 °C | ΔTm 23 (OSR1): 2.3 °C | ΔTm 23 (PAK1): 8.9 °C

Cc1cccc(-c2ccc(-c3cc4cnc(NC(CO)CO)nc4n(CCCCN)c3=O)c(Cl)c2)n1 [compound 24, 8-(4-Aminobutyl)-6-(2-chloro-4-(6-methylpyridin-2-yl)phenyl)-2-((1,3-dihydroxypropan-2-yl)amino)pyrido[2,3-d]pyrimidin-7(8H)-one]
ΔTm MR24 (24) (CaMK2b): -0.8 °C | ΔTm MR24 (24) (DYRK2): -0.3 °C | ΔTm MR24 (24) (EphA5): -0.4 °C | ΔTm MR24 (24) (EphA7): 0.3 °C | ΔTm MR24 (24) (MAPKAPK2): -0.1 °C | ΔTm MR24 (24) (MELK): 5.5 °C | ΔTm MR24 (24) (MER): -0.7 °C | ΔTm MR24 (24) (NDR2): 2.6 °C | ΔTm MR24 (24) (OSR1): -0.5 °C | ΔTm MR24 (24) (PAK1): 6.9 °C

Cc1cccc(-c2ccc(-c3cc4cnc(NCCCc5ccc(N)cc5)nc4n(CCCCN)c3=O)c(Cl)c2)n1 [compound 25, 8-(4-Aminobutyl)-2-((3-(4-aminophenyl)propyl)amino)-6-(2-chloro-4-(6-methylpyridin-2-yl)phenyl)pyrido[2,3-d]pyrimidin-7(8H)-one]
ΔTm 25 (CaMK2b): -0.1 °C | ΔTm 25 (DYRK2): -0.6 °C | ΔTm 25 (EphA5): 3.2 °C | ΔTm 25 (EphA7): 5.1 °C | ΔTm 25 (MAPKAPK2): -0.6 °C | ΔTm 25 (MELK): 2.4 °C | ΔTm 25 (MER): 1.6 °C | ΔTm 25 (NDR2): 6.7 °C | ΔTm 25 (OSR1): 0.4 °C | ΔTm 25 (PAK1): 8.3 °C

Cc1cccc(-c2ccc(-c3cc4cnc(NCCCN5CCOCC5)nc4n(CCCCN)c3=O)c(Cl)c2)n1 [compound 26, MR26]
ΔTm MR26 (26) (CaMK2b): -0.3 °C | ΔTm MR26 (26) (DYRK2): -0.2 °C | ΔTm MR26 (26) (EphA5): 3.5 °C | ΔTm MR26 (26) (EphA7): 2.7 °C | ΔTm MR26 (26) (MAPKAPK2): -0.2 °C | ΔTm MR26 (26) (MELK): 5.0 °C | ΔTm MR26 (26) (MER): 1.0 °C | ΔTm MR26 (26) (NDR2): 5.2 °C | ΔTm MR26 (26) (OSR1): -0.1 °C | ΔTm MR26 (26) (PAK1): 5.7 °C
